Consider 1 molecule from patent publication US11311538B2, “Compositions and methods for targeting cancers” (YALE UNIVERSITY, priority 2018, dated 2022).

Each structure is given as a SMILES string.

Assay [1] deals with HLRCC UOK 262 xenograft tumors. Nature of the assay: Tumor growth delay assay, UOK 262 xenografts. The settings on record: BMN-673 0.5 mg/kg gavage daily, started at average tumor size 250 mm^3 (FIG. 4M). It is filed as in vivo, mouse. The source says: In vivo efficacy studies: HEK293FT xenografts. Female athymic nu/nu mice (Hsd:Athymic Nude-Foxnlnu, Envigo) were used for all in vivo xenograft studies. Mice were quarantined for at least 1 week before experimental manipulation. Tumors were formed using shRNA-expressing versions of the tumorigenic human embryonic kidney cell-derived line, HEK293FT. HEK293FT is a subline of HEK293 cells that has been transformed by expression of SV40 Large T-antigen. […], or shCTRL (non-targeted control) expressing HEK293FT cells were implanted subcutaneously (5×10^6 cells in 0.1 cc PBS) in the right flank of nude mice. Two efficacy studies were conducted. In one, mice were randomized into treatment and non-treated groups (10 mice/group) at day 3, with treatment initiation 4 days post implant. In a second independent in vivo efficacy study, mice were injected as above with 10 mice per group, and treatment was started only once the tumor volumes reached […]. For both studies, mice were visually observed daily and tumors were measured three times per week by calipers to determine tumor volume using the formula: Volume=L×W×W×0.532. Mice were fed with a grain based rodent diet containing Doxycycline at 200 mg/kg (Bioserv, Catalog #S3888). […] P-values were determined by ANOVA with repeated measures. […]

In the next assay the test system is poly-ADP-ribose (PAR). Nature of the assay: Western blot of PAR levels in xenograft tumors. The conditions noted are these: 24 h post treatment (FIGS. 9A-9B). It is filed as in vivo, mouse. On the procedure: Western Blot analyses. Western blot analysis of protein levels was conducted by loading 30 μg of whole cell lysate onto a 4-20% polyacrylamide gel. Total protein was transferred to a nitrocellulose membrane. After blocking with 5% milk, membranes were incubated with primary antibodies. Antibodies used were: Rabbit monoclonal anti-Fumarase (D9C5,Cell Signaling Technologies) 1:1000 in 5% BSA, mouse monoclonal anti-SDHB (21A11AE7, Abcam) 1:1000 in % 5 milk, mouse monoclonal anti-Vinculin (SPM227, Abcam) 1:1000 in 5% milk, rabbit polyclonal anti-Histone 3 Lysine 36 trimethyl (9050, Abcam) 1:500 in 5% BSA, anti-Histone 3 Lysine 9 trimethyl (D4W1U, Cell Signaling Technologies) 1:1000 in 5% BSA, mouse monoclonal anti-Beta Actin (60008, Protein Tech) 1:5000 5% milk, rabbit Polyclonal anti-Histone H3 (ab1791, Abcam 1:5000 5% BSA), rabbit Polyclonal anti-PAR (4336-BPC-100, Trevigen) 1:5000 5% BSA, mouse monoclonal anti-GAPDH (60004 Protein Tech) 1:5000 5% milk, mouse monoclonal anti-BRCA2 (ab1, Millipore, 1:1000 5% Milk), mouse monoclonal anti-BRCA1 (D-9, Santa Cruz, 1:200 5% milk), mouse monoclonal anti-RAD51(14B4 Novus bio, 1:1000 5% milk). Patient sample blots were reprobed. […] Doxycycline induced knockdown was monitored by western blot as well as by RFP fluorescence from the internal and dox-inducible reporter on the TRIPZ construct. […]

As for `Cn1ncnc1[C@H]1c2n[nH]c(=O)c3cc(F)cc(c23)N[C@@H]1c1ccc(F)cc1` [BMN-673, BMN-673 (Talazoparib)], the “tumor growth delay, UOK 262 xenografts” value in assay [1] is “substantial growth delay”. Also, the “PAR levels by western blot, SDHB knockdown vs shCTRL tumors” value with poly-ADP-ribose (PAR) was “reduced to the same extent”.
